The target in test [1] is Cdk2-cyclin A (Homo sapiens, UniProt P24941). The test is described as follows: In vitro kinase assay, Cdk2-cyclin A (in-house). It is filed as biochemical. As to the method:
(§1) The in vitro kinase assays for testing against Cdk4-cyclin D1, Cdk2-cyclin A, Cdk1-cyclin B1 and Cdk9-cyclin T1 were performed in-house. The methodology and results have been reported previously.[20], [30], [31], [32], [45] The kinase profiling for 58 representative kinases was carrried out commercially at Millipore Bioscience Division, Livingston, UK.

The target in test [2] is Cdk1-cyclin B1 (Homo sapiens, UniProt P06493). The test is described as follows: In vitro kinase assay, Cdk1-cyclin B1 (in-house). Particulars: three independent experiments; read-out: IC50 (mean±S.D.), Cdk1-cyclin B1. Format: biochemical. As to the method: as §1
In test [3] the target is Cdk9-cyclin T1 (Homo sapiens, UniProt P50750). The test is described as follows: In vitro kinase assay, Cdk9-cyclin T1 (in-house). It is filed as biochemical. To be noted: three independent experiments; read-out: IC50 (mean±S.D.), Cdk9-cyclin T1. As to the method: as §1
For test [4], the system named is pBluescript plasmid DNA. Kind of test: EtBr displacement assay. It is filed as binding. Particulars: 1.3 μM EtBr. As to the method: The assays were performed in a 96-well plate with clear bottom (Costar, Washington, DC, USA). The assay involved the addition of 10 μl of 10 × concentrated stock solution of compounds (dissolved in DMSO and further diluted in EtBr displacement assay buffer) to 90 μl of reaction mixture containing 6 μg of purified pBlueScript DNA and 1.3 μM EtBr in EtBr displacement assay buffer with final pH 7.4. Equivalent amounts of DMSO were added to the vehicle controls. In addition to control samples (DNA+EtBr), test samples (DNA+EtBr+test compounds), blank 1 (EtBr only), blank 2 (DNA only), wells containing DNA and compound were also prepared to test any change in the background fluorescence readings. The reduction in relative fluorescence counts was monitored ([…]) and recorded after 1 min equilibration time. Fascaplysin and actinomycin D, which are known to intercalate d-s DNA, were used as standard compounds in assay. The mean control and test readings were corrected by subtracting blank readings. The percentage fluorescence in the test samples in reaction with control samples was calculated by using following formula: […]

The subject of test [5] is pBluescript plasmid DNA. Kind of test: Topoisomerase I catalysed DNA relaxation or unwinding assay. It is filed as biochemical. As to the method:
For assay, 5 nM supercoiled pBluescript d-s plasmid DNA and 10 U of topoisomerase-I active enzyme were used in each reaction well. To ensure that the assay determines the DNA-intercalating property of compounds and not topoisomerase I inhibition, in a parallel experiment relaxed plasmid DNA was first prepared by treating with topo I enzyme for 30 min and then used as an initial substrate for the assay. DNA relaxation assays were performed in the presence or absence of compounds in 40 μl of DNA unwinding assay buffer. After 30 min incubation at 37 °C, reaction mixtures were treated with 3 μl of 250 mM EDTA and extracted with phenol/chloroform. The DNA was dissolved in tris-EDTA buffer, pH 8.0. The samples (20 μl) were treated with 2 μl of 2.5% SDS, mixed with 2.5 μl agarose gel loading buffer (10x) and subjected to electrophoresis on a 0.8% agarose gel without EtBr (separating the DNA in the presence of EtBr would convert the relaxed DNA into the supercoiled form). After the electrophoretic separation, DNA bands were stained with 1 μg/ml EtBr and visualized using a UV illuminator. The compounds were compared with fascaplysin, which is a known DNA-intercalating molecule. Camptothecin, which is a known topoisomerase- I inhibitor, was used to test the activity and inhibition of enzyme.

For test [6], the system named is LS174T (colorectal carcinoma; p53+, pRb+). The test is described as follows: Cell proliferation (MTT) assay, LS174T. It is filed as cell-based. Particulars: Homo sapiens, 48 h, read-out: IC50 cell growth inhibition, LS174T. As to the method: (§2) All 10 human cancer cell lines were maintained at 37 °C in 5% CO2 in RPMI-1640 medium, supplemented with 10% foetal calf serum and 100 μg/ml normocin. The 10 cancer cell lines used for screening were all obtained from ATCC (Manassas, VA, USA); they were the NSCLC (a form of cancer that is resistant to chemotherapy) lines: NCI-H460 (pRb^+, p53^+), A549 (pRb^+, p53^+), Calu-1 (pRb^+, p53-null), NCI-H1299 (pRb^+, p53-null), NCI-H358 (pRb-null, p53-null); the colon cancer line LS174T (pRb^+, p53^+); the prostate cancer line PC-3 (pRb^+, p53-null); the pancreatic cancer line MiaPaca (pRb^+, p53-mutant). The genotypes within brackets indicate the status of the tumour suppressor proteins pRb and p53. The mouse embryonic normal hepatic cell line (BNL CL2) and its SV40 large T-antigen-transformed counterpart cell line (BNL SV A.8) were also purchased from ATCC. The large T-antigen inactivates the tumour suppressor proteins p53 and pRb. The detailed procedure of cell proliferation (MTT) assay and IC50 determination was described previously.[32]

Test [7] concerns PC-3 (prostate; p53 null, pRb+). Kind of test: Cell proliferation (MTT) assay, PC-3. It is filed as cell-based. To be noted: Homo sapiens, 48 h, read-out: IC50 cell growth inhibition, PC-3. How it is done:
as §2

In test [8] the test system is MiaPaCa (pancreatic; p53His273mut, pRb+). The test is described as follows: Cell proliferation (MTT) assay, MiaPaCa. It is filed as cell-based. To be noted: Homo sapiens, MIA PaCa-2, 48 h, read-out: IC50 cell growth inhibition, MiaPaCa. As to the method:
as §2

Test [9] deals with A549 (NSCLC; p53+, pRb+). Kind of test: Cell proliferation (MTT) assay, A549. To be noted: Homo sapiens, 48 h, read-out: IC50 cell growth inhibition, A549. Format: cell-based. As to the method:
as §2

Test [10] concerns Calu-1 (NSCLC; p53 null, pRb+). Kind of test: Cell proliferation (MTT) assay, Calu-1. Format: cell-based, human. Particulars: Homo sapiens, Calu-1; 48 h, MTT; read-out: IC50 cell growth inhibition, Calu-1. How it is done:
as §2

Test [11] addresses Cdk4-cyclin D1 (Homo sapiens, UniProt P11802). Set-up: method as in PMID 12941311, PMID 15165138. Particulars: cited from earlier work.

Each structure is given as a SMILES string.

Cdk1-cyclin B1, sequence (P06493 whole entry): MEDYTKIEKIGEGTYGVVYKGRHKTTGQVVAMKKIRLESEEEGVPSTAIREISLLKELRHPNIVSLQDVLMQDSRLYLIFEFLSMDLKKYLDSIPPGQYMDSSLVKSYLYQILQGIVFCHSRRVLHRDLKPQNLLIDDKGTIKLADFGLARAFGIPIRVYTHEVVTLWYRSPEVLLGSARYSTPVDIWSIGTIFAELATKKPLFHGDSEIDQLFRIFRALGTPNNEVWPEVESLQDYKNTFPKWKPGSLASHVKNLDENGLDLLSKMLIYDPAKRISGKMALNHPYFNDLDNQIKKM
Cdk1-cyclin B1, sequence (P14635 whole entry partner): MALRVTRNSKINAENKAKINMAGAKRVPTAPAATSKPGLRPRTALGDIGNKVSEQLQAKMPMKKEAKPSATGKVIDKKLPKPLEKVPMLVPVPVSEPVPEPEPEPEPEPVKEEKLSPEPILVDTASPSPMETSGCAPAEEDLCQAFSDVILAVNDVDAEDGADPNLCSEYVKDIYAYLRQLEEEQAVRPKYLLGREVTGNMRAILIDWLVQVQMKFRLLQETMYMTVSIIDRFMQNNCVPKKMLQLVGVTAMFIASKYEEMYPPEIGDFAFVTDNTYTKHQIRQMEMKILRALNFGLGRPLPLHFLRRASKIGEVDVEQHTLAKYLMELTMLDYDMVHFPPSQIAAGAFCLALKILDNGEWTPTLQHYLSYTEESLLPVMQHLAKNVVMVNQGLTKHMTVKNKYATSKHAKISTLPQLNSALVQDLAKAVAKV
Cdk9-cyclin T1, sequence (P50750 whole entry): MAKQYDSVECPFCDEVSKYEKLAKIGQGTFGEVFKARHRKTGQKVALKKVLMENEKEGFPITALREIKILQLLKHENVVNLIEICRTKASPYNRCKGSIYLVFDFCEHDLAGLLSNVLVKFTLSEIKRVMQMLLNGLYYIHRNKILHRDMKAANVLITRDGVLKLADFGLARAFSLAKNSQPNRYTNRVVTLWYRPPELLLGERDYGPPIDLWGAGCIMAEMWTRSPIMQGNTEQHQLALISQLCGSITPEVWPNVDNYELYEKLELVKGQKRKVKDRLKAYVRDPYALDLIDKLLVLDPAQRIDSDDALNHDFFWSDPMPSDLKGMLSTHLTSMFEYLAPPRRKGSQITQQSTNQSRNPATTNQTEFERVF
Cdk9-cyclin T1, sequence (O60563 whole entry partner): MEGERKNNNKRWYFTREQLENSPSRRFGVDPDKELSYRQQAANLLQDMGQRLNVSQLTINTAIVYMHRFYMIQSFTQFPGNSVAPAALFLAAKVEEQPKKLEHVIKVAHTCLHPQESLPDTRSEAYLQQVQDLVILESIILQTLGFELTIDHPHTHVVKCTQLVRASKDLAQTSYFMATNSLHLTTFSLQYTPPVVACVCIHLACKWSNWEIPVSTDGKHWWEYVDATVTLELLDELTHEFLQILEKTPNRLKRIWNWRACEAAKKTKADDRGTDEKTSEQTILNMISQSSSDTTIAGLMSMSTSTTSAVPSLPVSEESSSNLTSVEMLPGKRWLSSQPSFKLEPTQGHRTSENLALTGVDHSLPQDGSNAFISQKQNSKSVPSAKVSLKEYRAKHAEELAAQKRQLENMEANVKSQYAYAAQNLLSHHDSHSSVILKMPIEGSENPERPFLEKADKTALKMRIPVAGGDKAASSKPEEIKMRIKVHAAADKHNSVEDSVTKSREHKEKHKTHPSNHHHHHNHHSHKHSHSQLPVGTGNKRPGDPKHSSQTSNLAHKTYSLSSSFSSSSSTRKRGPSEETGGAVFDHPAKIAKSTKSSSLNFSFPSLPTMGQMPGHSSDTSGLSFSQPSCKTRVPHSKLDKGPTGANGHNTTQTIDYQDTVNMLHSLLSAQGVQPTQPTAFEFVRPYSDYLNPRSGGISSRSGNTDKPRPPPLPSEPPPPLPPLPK
Cdk4-cyclin D1, sequence (P11802 whole entry): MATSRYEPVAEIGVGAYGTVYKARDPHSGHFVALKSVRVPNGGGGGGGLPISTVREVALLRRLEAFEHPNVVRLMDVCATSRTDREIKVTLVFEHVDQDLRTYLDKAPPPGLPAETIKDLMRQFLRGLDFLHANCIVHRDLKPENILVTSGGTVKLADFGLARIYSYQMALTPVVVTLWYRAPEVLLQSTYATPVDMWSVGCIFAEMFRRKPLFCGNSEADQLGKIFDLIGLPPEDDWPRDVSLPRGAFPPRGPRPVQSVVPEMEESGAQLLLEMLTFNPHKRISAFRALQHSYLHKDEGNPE
Cdk4-cyclin D1, sequence (P24385 whole entry partner): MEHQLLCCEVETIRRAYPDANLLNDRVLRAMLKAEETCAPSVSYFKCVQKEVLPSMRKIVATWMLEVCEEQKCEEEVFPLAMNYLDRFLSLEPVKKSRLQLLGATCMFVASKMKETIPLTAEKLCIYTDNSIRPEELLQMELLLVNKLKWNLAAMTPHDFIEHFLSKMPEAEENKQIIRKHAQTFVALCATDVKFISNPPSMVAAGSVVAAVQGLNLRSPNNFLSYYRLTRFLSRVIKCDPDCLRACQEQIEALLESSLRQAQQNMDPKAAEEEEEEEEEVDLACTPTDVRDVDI

With `O=C1c2ccccc2-[n+]2ccc3c([nH]c4ccccc43)c21` [Fascaplysin, fascaplysin, reference compound], the concentration for half-maximal inhibition (IC50) was over 250000 nM in test [1]; over 250000 nM in test [2]; over 250000 nM in [3]; 880 nM in test [6]; 920 nM in [7]; 880 nM in [8]. The values for the IC50 in test [9], in test [10] and in test [11] were 690 nM, 1300 nM and about 350 nM, respectively. For the same compound, the “EtBr displacement from DNA” value in test [4] (pH 7.4) is “Displaces EtBr at 1 μM”; in test [4] (pH 7.4, listed as fascaplysin), “readily dislodges the bound EtBr”. For the same compound, the “state of relaxed (negatively supercoiled) plasmid DNA after treatment” value in test [5] (relaxed pBluescript DNA as substrate, BPT up to 100 μM, fascaplysin 1 μM) was “does not remain intact”. In addition, the “hindrance of topoisomerase-I catalysed DNA relaxation” value in [5] (supercoiled pBluescript DNA, fascaplysin 10 and 1 µM, BPT 10 and 100 µM) is on record as “hinder topoisomerase-I catalysed DNA relaxation”.

One may read the IC50 as the midpoint of a concentration-inhibition curve.
